In patent US5510501A, “Saintopin derivatives” (Kyowa Hakko Kogyo, Co. Ltd., priority 1992, dated 1996) one finds IC50, Solubility and MIC data, which are given here for 3 compounds.

One data set deals with BALB 3T3/H-ras cells. The data set is described as follows: Growth inhibition against BALB 3T3/H-ras cells. Format: cell-based. As to conditions: Mus musculus, 72 hours, Neutral Red.
A further data set in a line: Solubility. Format: physicochemical.
A further data set relates to HeLaS3 cells. The data set is described as follows: Anti-tumor activity against HeLaS3 cells (Neutral Red growth inhibition). Format: cell-based. Particulars: Homo sapiens, HeLa S3, 72 hours. As to the method: HeLaS3 cells (ATCC HTB22) were suspended in a medium comprising 10% fetal calf serum, 2 mM glutamine and MEM medium (produced by Nippon Pharmaceutical Co., Ltd.) (hereinafter referred to as medium A) to a concentration of 3×10^4 cells/ml. The cell suspension was put into wells of a 96-well microtiter plate in an amount of 0.1 ml per well. The cells in the plate were cultured at 37° C. for 20 hours in a CO2 -incubator. Subsequently, the test compound appropriately diluted with medium A was added to the wells in an amount of 0.1 ml/well. The cells were further cultured at 37° C. for 72 hours in the CO2 -incubator, and then the culture supernatant was removed. To the residue was added a medium comprising medium A and 0.02% Neutral Red in an amount of 0.1 ml per well, followed by culturing at 37° C. for one hour in the CO2 -incubator, whereby the cells were stained. After removal of the culture supernatant, the residue was washed once with physiological saline. The pigment was extracted with 0.001N hydrochloric acid/30% ethanol, and the absorbance at 550 nm was measured by using a microplate reader. The concentration of the test compound at which the growth of the cells is inhibited by 50% (IC50) was calculated by comparing the absorbance of untreated cells with those of the cells treated with the test compound at known concentrations.

The test system of data set [1] is Staphylococcus aureus ATCC 6538P. The data set is described as follows: Antibacterial activity, MIC by agar dilution method. The format is cell-based. As to conditions: ATCC6538P, pH 7. As to the method: (§1) The antibacterial activity was determined by the agar dilution method using a medium (pH 7) which comprises 3 g/l Bacto-Tryptone (produced by Difco Laboratories), 3 g/l meat extract, 1 g/l yeast extract, 1 g/l glucose and 16 g/l agar.
Background: In agar dilution the substance is mixed into plates at graded concentrations.

Data set [2] relates to Enterococcus faecium ATCC 10541. Described as above. Particulars: ATCC10541, pH 7. The format is cell-based. As to the method: as §1

The term IC50 denotes the midpoint of a concentration-inhibition curve. A higher IC50 goes with weaker potency in that assay. In general, MIC refers to the lowest concentration that inhibits growth of the organism. The low end stands for inhibition by little substance, the high end for a need for much substance.

Values after ≈ are worked out from the molar mass of the structure shown.

In the data set with BALB 3T3/H-ras cells, `CC(=O)c1c(O)cc2cc3c(c(O)c2c1O)C(=O)c1c(O)cc(O)cc1C3=O` [Saintopin E] gave a half-inhibitory concentration (IC50) of 2.4 µM. Moreover, the Solubility entry in the data set “Solubility” (acetone) is reported as “Readily soluble”; in “Solubility” (chloroform), “soluble”; in the data set “Solubility” (dimethyl sulfoxide (DMSO)), “Readily soluble”; in the data set “Solubility” (ethyl acetate) it was “soluble”; in “Solubility” (methanol), “Readily soluble”; in the data set “Solubility” (n-hexane) it was “sparingly soluble”. Besides, the Solubility entry in “Solubility” (water) is reported as “sparingly soluble”.
`O=C1c2cc(O)cc(O)c2C(=O)c2c1cc1cc(O)cc(OS(=O)(=O)O)c1c2O` [UCE 1022] showed an IC50 in the data set with HeLaS3 cells of 6.1 µM. Also, the MIC in data set [1] and in data set [2] was 0.52 µg/mL (≈ 1.24 µM) each time. For the same compound, the Solubility entry is reported as “Soluble” in the data set “Solubility” (ethanol), “Soluble” in “Solubility” (methanol), “sparingly soluble” in the data set “Solubility” (n-hexane) and “Soluble” in the data set “Solubility” (water).
Turning to `O=C1c2cc(O)cc(O)c2C(=O)c2c1cc1cc(O)cc(O)c1c2O` [UCT 1003, reference compound], the Solubility entry in the data set “Solubility” (water) is “sparingly soluble”.
